Earlier results as cited in patent US20060160230A1, “Wipes and methods for removal of metal contamination from surfaces” (The Government of the United States of America as …, priority 2005, published 2006).

Experiments:
[1] = 10% citric acid lotion applied topically for a three month period (Bernstein et al. 1997)
[2] = 1999; rinse-off cosmetic products

O=C(O)CC(O)(CC(=O)O)C(=O)O [citric acid]
clinical signs of adverse effects [1]: No clinical signs of adverse effects

isostearamidopropyl morpholine lactate [ISML]
safety conclusion of CIR Expert Panel [2]: considered safe for use in rinse-off cosmetic products
